The results in this text go back to ChEMBL document CHEMBL4610107, “Ene-yne Hydroquinones from a Marine-derived Strain of the Fungus Pestalotiopsis neglecta with Effects on Liver X Receptor Alpha” (J Nat Prod, 2020).

In this experiment the target is T1, Oxysterols receptor LXR-alpha (Homo sapiens, UniProt Q13133).
T1 sequence (Q13133 whole entry): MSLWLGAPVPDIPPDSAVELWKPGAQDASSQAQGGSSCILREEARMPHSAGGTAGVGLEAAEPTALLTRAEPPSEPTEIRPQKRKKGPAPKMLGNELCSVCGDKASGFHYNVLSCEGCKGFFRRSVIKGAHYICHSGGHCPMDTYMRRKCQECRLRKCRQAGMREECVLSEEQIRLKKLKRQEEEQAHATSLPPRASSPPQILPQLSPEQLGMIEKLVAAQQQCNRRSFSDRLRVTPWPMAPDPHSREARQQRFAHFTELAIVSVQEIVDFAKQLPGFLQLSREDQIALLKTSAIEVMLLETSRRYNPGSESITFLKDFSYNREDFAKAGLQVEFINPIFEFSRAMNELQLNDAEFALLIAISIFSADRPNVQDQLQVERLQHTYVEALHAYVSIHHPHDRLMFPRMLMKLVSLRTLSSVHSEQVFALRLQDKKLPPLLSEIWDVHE
Description: Binding affinity to LXRalpha (unknown origin) by surface plasmon resonance assay.

With `O=C(O)Cc1cccc(OCCCN(Cc2cccc(C(F)(F)F)c2Cl)CC(c2ccccc2)c2ccccc2)c1`, the Kd entry is on record as “Not Active”.
